Assay results as given in patent US9301528B2 (Rohm and Haas Company, priority 2012, dated 2016).

Legend:
Chlorella sp. ATCC 7516 = assay: Algal efficacy testing of dry paint films (modified ASTM 5589, 6-well plates); assay type: cell-based; details: 3 weeks; for % inhibition: at the total conc, vs blank; for Total conc: total biocide conc in paint reported for pass level ≧75% inhibition (max tested 5000 ppm if no pass)
Procedure: (§1) KATHON™ 893T (100% OIT) and ROCIMA™ 200 (20% DCOIT) were post added to a white, acrylic/silicone based outdoor paint free of biocides to give a total active ingredient concentration of 10000 and 1000 ppm respectively. These paints were then diluted with an antimicrobial free acrylic/silicone based paint and mixed to prepare targeted concentrations of antimicrobial compounds for the testing. The total biocides concentrations tested were 125, 250, 500, 1000, 2000 and 5000 ppm. After biocides addition or dilution, the paints were mixed 90 seconds with the horse power shaker (AXEL 75M3372/Agitateur SO-10MI) until uniformity was achieved. Paints containing different antimicrobial compounds at the same levels were mixed together in order to obtain the desired ratio of antimicrobial compounds. After one day, the paints were applied to Schleicher & Schuell filter paper at 280 μm wet film thickness and dried for 3 days at room temperature avoiding direct exposure to sunlight. Square discs (1.6 cm×1.6 cm) were cut out from each panel and were used as the substrate for algal efficacy tests. This sample size allowed for an agar border when the sample disc was placed into the well of the test plate.
(§2) Algal efficacy was tested according to modified ASTM 5589 which is a standard accelerated test method for determining resistance of various coatings (including paints) to algal defacement. To accommodate for high-throughput screening, this method was scaled down from petri dishes to 6-well plates. Bold Modified Basal Freshwater Nutrient Solution was used as growth medium. A single coated filter paper coupon was placed with a pair of sterile forceps at the center of the agar plug (on top) with the painted surface facing upwards. Algal inoculums were prepared by mixing equal concentrations (1×10^6 cfu/ml) and equal volumes of exponentially growing algae cultures.
(§3) Each well that contains a tested coupon was inoculated with 1750 μl of algal suspensions (1×10^6 cfu/ml) making sure that the whole surface (paint film as well as the agar surrounding it) was evenly covered. The plates were incubated at room temp (21° C.-25° C.) with cyclic exposure to light and dark phases, for a period of three weeks.
(§4) At the end of the three week incubation period, the samples were scored for percent inhibition regarding visible algal growth compared to the blank sample (0% inhibition).
(§5) The SI is calculated based on F. C.
(§6) SI value of <1 in the formula indicates a synergism of the blended biocides exists.
(§7) The minimal targeted inhibition was set at 75%, meaning a coupon with at least 75% algal growth inhibition was considered as a pass.

[1] = tested on: Stichococcus bacillaris SAG 379-1a / CCAP 379/1a; assay: as above; assay type: cell-based; details: 3 weeks; for % inhibition: at the total conc, vs blank; for Total conc: total biocide conc in paint reported for pass level ≧75% inhibition (max tested 5000 ppm if no pass)
Procedure: as §1, §2, §3, §4, §5, §6, §7

Structure (SMILES) | % inhibition (Chlorella sp. ATCC 7516; DCOIT/Lenacil table) [%] | Total conc (Chlorella sp. ATCC 7516; DCOIT/Lenacil table) [ppm] | % inhibition ([1]; DCOIT/Lenacil table) [%] | Total conc ([1]; DCOIT/Lenacil table) [ppm] | % inhibition (Chlorella sp. ATCC 7516; OIT/Lenacil table) [%] | Total conc (Chlorella sp. ATCC 7516; OIT/Lenacil table) [ppm] | % inhibition ([1]; OIT/Lenacil table) [%] | Total conc ([1]; OIT/Lenacil table) [ppm]
CCCCCCCCn1sc(Cl)c(Cl)c1=O [DCOIT, 4,5-dichloro-2-n-octyl-4-isothiazolin-3-one] | 85 | 1000 | 95 | 1000 |  |  |  | 
O=c1[nH]c2c(c(=O)n1C1CCCCC1)CCC2 [Lenacil, 3-cyclohexyl-1,5,6,7-tetrahydrocyclopentapyrimidine-2,4(3H)-dione] | 30 | 5000 | 70 | 5000 | 45 | 5000 | 30 | 5000
CCCCCCCCn1sccc1=O [OIT, 2-n-octyl-4-isothiazolin-3-one] |  |  |  |  | 95 | 1000 | 90 | 500
